Patent US20140100419A1, “ACTIVE VITAMIN D OR ANALOGS THEREOF FOR USE IN IN VIVO OR IN VITRO FERTILIZATION” (priority 2011, published 2014)

Assays:
VDR-ap = molecular target: T1, VDR-ap (Homo sapiens, UniProt P11473); conditions: cited from earlier work
T1 sequence (P11473 1-427): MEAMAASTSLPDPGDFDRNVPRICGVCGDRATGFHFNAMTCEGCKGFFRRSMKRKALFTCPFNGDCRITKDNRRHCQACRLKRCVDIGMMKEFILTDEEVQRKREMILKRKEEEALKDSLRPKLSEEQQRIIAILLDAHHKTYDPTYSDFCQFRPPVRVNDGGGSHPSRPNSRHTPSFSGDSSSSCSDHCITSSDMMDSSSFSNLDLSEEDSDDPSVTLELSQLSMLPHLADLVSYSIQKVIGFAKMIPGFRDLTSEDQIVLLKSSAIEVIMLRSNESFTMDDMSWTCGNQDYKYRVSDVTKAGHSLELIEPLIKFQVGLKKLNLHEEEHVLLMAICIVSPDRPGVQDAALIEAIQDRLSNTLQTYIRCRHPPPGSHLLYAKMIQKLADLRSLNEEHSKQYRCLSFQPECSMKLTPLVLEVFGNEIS

human spermatozoa = assay: Sperm motility of washed spermatozoa with or without percoll gradient centrifugation; assay type: cell-based; conditions: 10 nM JN
[1] = system: zona pellucida (ZP) of human oocytes; assay: Human sperm-zona pellucida interaction (sperm-egg binding) test; assay type: cell-based; conditions: 10 nM JN
Description: We used the Human sperm-zona pellucida interaction test that is designed to determine the capacity of sperm to interact with the zona pellucida (ZP) of human oocytes and serves thus as a test for evaluating fertility potential of human spermatozoa. The tests provide important diagnostic information about sperm fertilising ability and we used a modified version of the test developed by Liu and Baker (Liu and Baker hum reprod 1999 Defective sperm-zona pellucida interaction: a major cause of failure of fertilization in clinical in-vitro fertilization).
If the oocyte had sperm bound to the ZP from the IVF insemination, these were removed by aspiration using a fine glass pipette with an inner diameter (120 μm) slightly smaller than the oocyte diameter. […] Oocytes with >10 sperm penetrating the ZP were not used. Also degenerate, activated or morphologically abnormal oocytes were not used for the sperm-ZP interaction test. Oocytes were pooled from several patients and used for the test on the same day or kept in the incubator and used within the next 20 days. Between 15-30 oocytes was placed in 1 ml salt solution (storage 2-4 weeks). Salt-stored human oocytes were washed with gamete buffer (COOK) with four changes in 3 hours before they were used for the sperm-egg binding test.
Semen samples from five donors were used. […] The washed sperm pellet was resuspended with sEBSS to a sperm concentration of 2×10^6/ml for the ZP-interaction test. For the assessment of the sperm concentration the samples were diluted following the manufactures instruction and subsequently determined using SP-100 (Chemometec).
For the sperm-ZP interaction tests, either high quality sperm or total sperm sample (2×10^6) in 0.5 ml of medium (+/−1 nM Calcitriol) were incubated with three oocytes for 2 h at 37° C. in 5% CO2 in air. After incubation, the oocytes were transferred to sEBSS and washed by repeated aspiration with a glass pipette (inside diameter approximately 250 μm) to dislodge sperm loosely adhering to the surface of the ZP. Sperm binding to all oocytes was assessed.

SMILES: C[C@H](CCCC(C)(C)O)[C@H]1CC[C@H]2C3=CC=C4C[C@@H](O)C[C@H](O)[C@@]4(C)[C@@H]3CC[C@]12C [JN, 1α,25(OH)2-lumisterol]
- affinity for VDR-ap (VDR-ap): same affinity as 1,25(OH)2D3
- motile sperm (human spermatozoa; 60 minutes, isolated by percoll gradient centrifugation (from 69%)): 72%
- sperm motility (mean) (human spermatozoa; 60 minutes, no percoll centrifugation (vehicle mean 34)): 46
- change in proportion of motile sperm (human spermatozoa; 24 hours at room temperature, with and without percoll, not substantially different from vehicle): modest decrease
- mean number of spermatozoa bound to each oocyte ([1]; 1 donor (vehicle mean 37)): 65
- difference in sperm-egg binding versus vehicle ([1]; separated by percoll gradient centrifugation): 300%
- average improvement of sperm-egg binding versus vehicle ([1]; without percoll gradient centrifugation): 11%
